Read-outs that look alike come from different tables or passages of the source.

What all share (assay type): in vivo
Assay [1] concerns Beet Armyworm (Spodoptera exigua, LAPHEG). Put plainly: Bioassays on Beet Armyworm (BAW), 128-well diet tray assay. Conditions: Spodoptera exigua. The procedure, abridged: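 Mortality of second-instar larvae (1–5/well) on artificial diet treated with 50 μg/cm^2 compound, read after 5–7 days at 25° C.; values are means of eight wells.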
Assay [2] concerns Cabbage Looper (Trichoplusia ni, TRIPNI). Put plainly: Bioassays on Cabbage Looper (CL), 128-well diet tray assay. As to conditions: Trichoplusia ni. The procedure, abridged:
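Percent mortality, averaged across eight replicate wells, after second-instar larvae (1–5 per well) fed for five to seven days on diet dosed at 50 μg/cm^2. Compound was applied in acetone-water 90:10 and dried; trays kept vented at 25° C under 14:10 photoperiod.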

Assay [3] relates to Yellow Fever Mosquito (Aedes aegypti, AEDSAE). Conditions: for YFM rating: Table ABC / ABC-DP rating. An outline of the steps: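 Rating-scale grades reflect larval mortality scored per well after 3 days at room temperature under non-evaporative lids. Larvae (~1 day old, hatched overnight in liver-powder water) were added to six daughter plates per compound, prepared from a 4000 ppm DMSO stock diluted in 90:10 water/acetone.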

Setting [4] is: Table ABC: Biological Results, species BAW, read-out: BAW.
Setting [5] is: Table ABC: Biological Results, species CL, read-out: CL.
Where [6] appears, read: Table ABC: Biological Results, species YFM.
The mark [7] stands for this setting: Beet Armyworm, Table ABC / ABC-DP rating, read-out: BAW rating.
The mark [8] stands for this setting: Cabbage Looper, Table ABC / ABC-DP rating, read-out: CL rating.
Where [9] appears, read: Beet Armyworm, rating class, read-out: BAW.
The mark [10] stands for this setting: Cabbage Looper, rating class, read-out: CL.
The mark [11] stands for this setting: Yellow Fever Mosquito, rating class.

With `Nc1c(F)ccc(NC(=O)c2cc(NC(=O)[C@H]3[C@@H](c4cc(F)c(Cl)c(Cl)c4)C3(Cl)Cl)ccc2Cl)c1F` (relative stereo) [F1047, cis-N-(3-Amino-2,4-difluorophenyl)-2-chloro-5-(2,2-dichloro-3-(3,4-dichloro-5-fluorophenyl)cyclopropane-1-carboxamido)benzamide], the pest or weed control at 50 µg/cm2 in assay [1] (setting [4]) and in assay [2] (setting [5]) was 50 to 100% each time. In assay [3] (setting [6]), the YFM entry is given as “A (80–100)”.

For the compound `Nc1c(F)ccc(NC(=O)c2cc(NC(=O)[C@H]3[C@H](c4cc(C(F)(F)F)cc(C(F)(F)F)c4)C3(Cl)Cl)ccc2Cl)c1F` (relative stereo) [F1791, trans-N-(3-Amino-2,4-difluorophenyl)-5-(3-(3,5-bis(trifluoromethyl)phenyl)-2,2-dichlorocyclopropane-1-carboxamido)-2-chlorobenzamide], the pest or weed control at 50 µg/cm2 in assay [1] (setting [7]) and in assay [2] (setting [8]) was 50 to 100% throughout. The YFM rating result in assay [3] (Yellow Fever Mosquito) is recorded as “A (80–100)”.

With `Cc1c(N)ccc(NC(=O)c2cc(NC(=O)[C@H]3[C@H](c4cc(Cl)cc(Cl)c4)C3(Cl)Cl)ccc2Cl)c1C` (relative stereo) [F1229, trans-N-(4-amino-2,3-dimethylphenyl)-2-chloro-5-(2,2-dichloro-3-(3,5-dichlorophenyl)cyclopropane-1-carboxamido)benzamide], the pest or weed control at 50 µg/cm2 in assay [1] (setting [4]) and in assay [2] (setting [5]) was 50 to 100% in each case. Moreover, in assay [3] (setting [6]), the YFM result was “A (80–100)”.

`O=C(Nc1ccc(F)c(NC(=O)C(F)(F)F)c1F)c1cc(NC(=O)[C@H]2[C@H](c3ccc(Cl)c(Br)c3)C2(Cl)Cl)ccc1Cl` (relative stereo) [F1358, trans-5-(3-(3-Bromo-4-chlorophenyl)-2,2-dichlorocyclopropane-1-carboxamido)-2-chloro-N-(2,4-difluoro-3-(2,2,2-trifluoroacetamido)phenyl)benzamide]: the pest or weed control at 50 µg/cm2 in assay [1] (setting [4]) and in assay [2] (setting [5]) was 50 to 100% throughout. Further, in assay [3] (setting [6]), the YFM result is recorded as “A (80–100)”.

Take `CCOC(=O)C(F)C(=O)Nc1c(F)ccc(NC(=O)c2cc(NC(=O)[C@H]3[C@H](c4ccc(F)c(C(F)(F)F)c4)C3(Cl)Cl)ccc2Cl)c1F` (stereo partly drawn) [F1822, Ethyl 3-((3-(2-chloro-5-((1R,3R)-2,2-dichloro-3-(4-fluoro-3-(trifluoromethyl)phenyl)cyclopropane-1-carboxamido)benzamido)-2,6-difluorophenyl)amino)-2-fluoro-3-oxopropanoate]: the pest or weed control at 50 µg/cm2 in assay [1] (setting [7]) and in assay [2] (setting [8]) was 50 to 100% throughout. Also, the YFM rating result in assay [3] (Yellow Fever Mosquito) is given as “A (80–100)”.

As for `C=CCC(=O)Nc1c(F)ccc(NC(=O)c2cc(NC(=O)[C@H]3[C@H](c4ccc(F)c(C(F)(F)F)c4)C3(Cl)Cl)ccc2Cl)c1F` [F1874, N-(3-(But-3-enamido)-2,4-difluorophenyl)-2-chloro-5-((1R,3R)-2,2-dichloro-3-(4-fluoro-3-(trifluoromethyl)phenyl)cyclopropane-1-carboxamido)benzamide], the pest or weed control at 50 µg/cm2 in assay [1] (setting [7]) and in assay [2] (setting [8]) was 50 to 100% each time. Moreover, the YFM rating result in assay [3] (Yellow Fever Mosquito) is on record as “A (80–100)”.

For `CC(C)(C)CCCC(=O)Nc1c(F)ccc(NC(=O)c2cc(NC(=O)[C@H]3[C@H](c4ccc(F)c(C(F)(F)F)c4)C3(Cl)Cl)ccc2Cl)c1F` [F1856, 2-Chloro-5-((1R,3R)-2,2-dichloro-3-(4-fluoro-3-(trifluoromethyl)phenyl)cyclopropane-1-carboxamido)-N-(3-(5,5-dimethylhexanamido)-2,4-difluorophenyl)benzamide], the pest or weed control at 50 µg/cm2 in assay [1] (setting [7]) and in assay [2] (setting [8]) was 50 to 100% each time. The YFM rating result in assay [3] (Yellow Fever Mosquito) was “B (More than 0 – Less than 80)”.

`O=C(Nc1ccc(F)c(NC(=O)C(F)(F)F)c1)c1cc(NC(=O)[C@H]2[C@H](c3ccc(Cl)c(Cl)c3)C2(Cl)Cl)ccc1Cl` [F1812, 2-Chloro-5-((1R,3R)-2,2-dichloro-3-(3,4-dichlorophenyl)cyclopropane-1-carboxamido)-N-(4-fluoro-3-(2,2,2-trifluoroacetamido)phenyl)benzamide]: the pest or weed control at 50 µg/cm2 in assay [1] (setting [7]) and in assay [2] (setting [8]) was 50 to 100% throughout. The YFM rating entry in assay [3] (Yellow Fever Mosquito) is “B (More than 0 – Less than 80)”.

Consider `O=C(Nc1ccc(F)cc1)c1cc(NC(=O)[C@H]2[C@H](c3ccc(F)c(Cl)c3)C2(Cl)Cl)cc(F)c1Cl` (relative stereo) [F1152, trans-2-Chloro-5-(2,2-dichloro-3-(3-chloro-4-fluorophenyl)cyclopropane-1-carboxamido)-3-fluoro-N-(4-fluorophenyl)benzamide], for which the pest or weed control at 50 µg/cm2 in assay [1] (setting [4]) and in assay [2] (setting [5]) was 50 to 100% throughout. Besides, the YFM entry in assay [3] (setting [6]) is “A (80–100)”.

For `O=C(Nc1ccc(F)cc1)c1c(F)ccc(NC(=O)[C@H]2[C@H](c3ccc(F)c(Cl)c3)C2(Cl)Cl)c1F` (relative stereo) [F1100, trans-3-(2,2-Dichloro-3-(3-chloro-4-fluorophenyl)cyclopropane-1-carboxamido)-2,6-difluoro-N-(4-fluorophenyl)benzamide], the pest or weed control at 50 µg/cm2 in assay [1] (setting [4]) and in assay [2] (setting [5]) was 50 to 100% each time. Moreover, the YFM entry in assay [3] (setting [6]) is reported as “A (80–100)”.

Regarding `CC(=O)Nc1c(F)cc(F)c(NC(=O)c2cc(NC(=O)[C@H]3[C@H](c4ccc(Cl)c(Cl)c4)C3(Cl)Cl)ccc2Cl)c1F` [F1629, N-(3-Acetamido-2,4,6-trifluorophenyl)-2-chloro-5-((1R,3R)-2,2-dichloro-3-(3,4-dichlorophenyl)cyclopropane-1-carboxamido)benzamide], the pest or weed control at 50 µg/cm2 in assay [1] (setting [9]) and in assay [2] (setting [10]) was 50 to 100% in each case. The YFM result in assay [3] (setting [11]) is given as “B (More than 0 – Less than 80)”.

Regarding `O=C(NCCCNC(=O)C(F)(F)C(F)(F)F)c1cc(NC(=O)[C@H]2[C@H](c3cc(Cl)cc(Cl)c3)C2(Cl)Cl)ccc1Cl` (relative stereo) [F2097, trans-2-Chloro-5-(2,2-dichloro-3-(3,5-dichlorophenyl)cyclopropane-1-carboxamido)-N-(3-(2,2,3,3,3-pentafluoropropanamido)propyl)benzamide], the pest or weed control at 50 µg/cm2 in assay [1] (setting [7]) and in assay [2] (setting [8]) was 50 to 100% each time. Moreover, the YFM rating result in assay [3] (Yellow Fever Mosquito) was “A (80–100)”.

In the case of `Cc1c(NC(=O)c2cc(NC(=O)[C@H]3[C@H](c4ccc(F)c(C(F)(F)F)c4)C3(Cl)Cl)ccc2Cl)ccc(NC(=O)C(F)(F)F)c1C` [F1392, 2-Chloro-5-((1R,3R)-2,2-dichloro-3-(4-fluoro-3-(trifluoromethyl)phenyl)cyclopropane-1-carboxamido)-N-(2,3-dimethyl-4-(2,2,2-trifluoroacetamido)phenyl)benzamide], the pest or weed control at 50 µg/cm2 in assay [1] (setting [9]) and in assay [2] (setting [10]) was 50 to 100% throughout. Moreover, in assay [3] (setting [11]), the YFM result was “A (80–100)”.

These data come from patent US20250228239A1, “MOLECULES HAVING PESTICIDAL UTILITY, AND INTERMEDIATES, COMPOSITIONS, AND PROCESSES, RELATED THERETO” (priority 2024, published 2025).
